From article PMC9413201, “Covalent Proteomimetic Inhibitor of the Bacterial FtsQB Divisome Complex” (Journal of the American Chemical Society, 2022)
Numbered stars: 1 amine (or outer) side, 2 acyl side, 3 side chain; on linkers, the order of the positions; unused ones are H or OH. Bridge positions count the residues as written; N and C are the ends. Square brackets hold non-standard residues; d marks the D form. Peptide text beside a SMILES is read from it. * marks the point of attachment. X1 = O=C([C@H](CCCCCC=[*:3])N[*:1])[*:2]; Nle = CCCC[C@H](N)C(=O)O; BrAc = O=C(CBr)*

Key:
E. coli lptD4213 (imp) = assay: Growth assay (OD600) with outer membrane-permeable E. coli lptD4213 (imp); assay type: cell-based
Protocol: Growth assays were performed to assess the in vitro cytotoxicity of peptides. The experiments were executed under sterile conditions. For each assay, 20 mL of fresh MOPS medium was prepared (Teknova Inc MOPS EZ Rich Defined Medium Kit | M2105: 40 mM MOPS, 4 mM Tricine, 0.01 mM FeSO4, 9.5 mM NH4Cl, 0.276 mM […]
MOPS medium with Streptomycin (30 μg/mL) and incubated overnight at 200 rpm and 37°C. The next day, the […]
peptide stocks in DMSO were diluted to four times the desired highest concentration to be measured in MOPS medium. The peptide dilutions were vortexed and briefly centrifuged. 50 μL of MOPS medium was added to each well of a Corning® 96-well Clear Flat Bottom Polystyrene TC-treated Microplate. A twofold dilution series was performed by adding 50 μL of the diluted peptide to the top row, mixing it and taking 50 μL to the next row. At each step the solution was resuspended five times. This was repeated until the last row which was skipped in order to obtain a reference measurement. After 2-3 h, the E.coli lptD4213 (imp) pre-culture was diluted to an OD600 of 0.00005. Then, 50 μL of diluted culture were added to each well and the plate sealed using a lid and parafilm. The OD600 was measured every 15 min over a period of more than 20 h (continuously shaking, 37°C) using a BioTek Synergy H1 plate reader. The obtained data were analyzed and relative growth curves plotted with GraphPad Prism 8. The assays were performed as technical triplicates. A single overnight pre-culture was used to prepare the diluted MOPS culture used in the growth assay. […]

[1] = system: FtsB-mNG localization in E. coli lptD4213 (imp); assay: Localization of FtsB-mNG (fluorescence microscopy); assay type: cell-based; conditions: peptide c = 100 μM, 60 min after addition, MOPS rich medium, 37 °C
Protocol: were incubated for 1 h at 50 °C. The condensates were collected by centrifuging for 10 s. The digests were mixed for a few seconds and transferred to another tube. 0.5 % TFA was added to inactivate trypsin. The samples were […]
E.coli mutant lptD4213 (imp)
MOPS: MOPS EZ Rich Defined Medium Kit M2105 (Teknova).
At the end of the day, the cells
The next day, the cells were grown and diluted […]
objective. […] In all experiments, the cells […]
ex470/40, dic495LP, em525/50).

E. coli 87 = assay: Zebrafish larvae infection model (E. coli 87 expressing mScarlet); assay type: in vivo, zebrafish (Danio rerio) larvae; conditions: L8S1 3.125 μM, 17fα 70 μM, 15 zebrafish per condition
Protocol: 1.13 Microinjection of zebrafish larvae with E.coli 87 expressing mScarlet Transparent Casper zebrafish (Danio rerio) larvae were infected and treated according to protocols described by Van der Sar et al. and Bernard et al..7,8 In brief, zebrafish larvae collected from a laboratory-breeding colony kept at 24 °C and a 12:12 h dark/light regime. Larvae were selected based on morphology according to hours post fertilization (hpf) and kept at 28 °C. All protocols followed the international guidelines on the protection of animals used for scientific purposes specified by the EU Directive 2010/63/EU, which allows zebrafish larvae to be used up to the moment of free-living (5–7 dpf). Larvae were dechorionated at 28 hpf and anaesthetized in 0.2% tricaine methanesulfonate (MS222, Fluka A-5040). Larvae were individually infected with 1 nL, containing approximately 150-200 CFU ([…]), of mScarlet expressing clinical isolate E. coli 87 via microinjection of the caudal vein as described previously.9 One hour post infection, larvae were treated with L8S1, 17fα or a combination of the two via another microinjection of 1 nL in the caudal vein. To correct dilution of the treatment upon injection in the vein (1 nL in 250 nL zebrafish larvae volume), treatments were diluted in 0.1% phenol red (Sigma-Aldrich, p-0290) in phosphate buffered saline (PBS) to 250x the concentration as tested in vitro. Zebrafish larvae were kept at 30 °C throughout the experiment and survival of the larvae, based on heartbeat, was determined every 24 h for 2 d. Moreover, 18 h post infection larvae were anaesthetized using MS222 and bacterial load was determined using an Olympus IX83 fluorescence microscope (4x objective magnification, Hamamatsu ORCA-Flash 4.0 camera) at specific wavelength for detection of red fluorescence (excitation/emission, 580/610 nm). Obtained images were analyzed using CellProfiler 3.19 (Broad Institute, Cambridge, MA, USA) with a custom-made automated analysis pipeline to count and quantify pixel intensity within the larvae. Integrated red fluorescence intensity per larvae was used as a quantification of bacterial burden.

FtsQ(50–276) = FtsQ(50–276) (Escherichia coli, UniProt P06136); assay type: biochemical, E. coli; set-up: pET16b FtsQ(50˗276), a His6 fusion; made in house; host or cells: Escherichia coli BL21 DE3; conditions: peptide 125 μM, FtsQ(50–276) 50 μM, 37 °C, 1 or 3 h
Protocol: 1.5 Protein modification assay
To determine the reactivity of the different modifiers FtsQ(50˗276) was diluted to a concentration of 100 µM in 20 mM NH4HCO3 buffer (pH 7.6, 150 mM NaCl). The individual peptides were diluted to a concentration of 250 μM in the same buffer. Equal volumes of both solutions were mixed and incubated at 37 °C for the given time period (1 h or 3 h). The reaction was quenched using 5x SDS sample buffer (pH 6.8, 1.875 g TRIS-Cl, 25 mL glycerol, 5 g SDS, 12.5 mL β-mercaptoethanol, 0.5 % bromphenol blue and add 50 mL ddH2O). Samples were heated to 96 °C for 2 min and subsequently analysed by 17 % tris/tricine PAGE (15 min at 90 V and then 3:45 h at 150 V). PageRuler™ Prestained Protein Ladder, 10 to 180 kDa (Thermo Scientific™) was used as a ladder.
Staining was performed using standard Coomassie Staining Solution (40 mL EtOH, 0.3 g Coomassie Blue R250, 0.3 g Coomassie Blue G250, ad 100 mL ddH2O.) and then destained using water.
17 % Tris/Tricine gel (2x):
Running gel: 1.6 mL H2O, 5.5 mL AB-mix, 2.5 mL Buffer A, 100 μL 10% APS, 10 μL 1% TEMED Stacking gel: 2.1 mL H2O, 0.5 mL AB-mix, 0.38 mL Buffer A, 50 μL 10% APS, 5 μL 1% TEMED […]
Buffer A (4x) pH 8.45 3M Tris, 0.3 % SDS; Anode Buffer (10x) pH 8.8, 3M Tris; Cathode buffer (10x) 1M Tris, […]

FtsQ(50–276), sequence (P06136 50-276): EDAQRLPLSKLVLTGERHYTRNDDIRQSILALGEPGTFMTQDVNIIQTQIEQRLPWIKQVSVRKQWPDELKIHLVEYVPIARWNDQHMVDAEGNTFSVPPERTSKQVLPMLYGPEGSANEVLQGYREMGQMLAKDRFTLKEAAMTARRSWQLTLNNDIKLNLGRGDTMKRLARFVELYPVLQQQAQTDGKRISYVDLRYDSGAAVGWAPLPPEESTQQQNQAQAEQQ

## CCCC[C@@H]1NC(=O)[C@H](CO)NC(=O)[C@H](CC(C)C)NC(=O)[C@H](CCC(=O)O)NC(=O)[C@H](CC(N)=O)NC(=O)[C@@H](NC(=O)[C@H](C)NC(C)=O)CCCCCC=CCCCCC[C@@H](C(=O)N[C@@H](CCCCNC(=O)CBr)C(=O)N[C@@H](Cc2ccccc2)C(=O)N[C@@H](Cc2ccc(O)cc2)C(=O)N[C@@H](CCCNC(=N)N)C(=O)N[C@@H](CC(C)C)C(N)=O)NC(=O)CNC(=O)[C@@H]2CCCN2C(=O)[C@H](CCCNC(=N)N)NC(=O)[C@H]([C@@H](C)O)NC1=O [17fα] (Ac-A[X1]NELS[Nle]TRPG[X1]K(BrAc)FYRL-NH2; staple 2-12)
E. coli lptD4213 (imp); concentration-dependent effect on growth after 15 h, highest tested concentration 100 μM, n = 3 replicates
  lowest concentration with inhibitory effect on growth: 12.5 µM
E. coli lptD4213 (imp); inhibitor c = 50 μM, OD600 every 15 min over 22 h, n = 3 technical replicates
  effect on bacterial growth (OD600): prevents bacterial growth
[1]
  FtsB-mNG midcell localization: loss of midcell localization
E. coli 87; infected with E. coli 87 (189 CFU), treated 1 h post infection by microinjection, survival by heartbeat, n = 4 replicates, SD
  Survival rate of zebrafish larvae after 24 h (mean ± SD): 20.0 ±16.3
E. coli 87; replicate #1, E. coli 87 (189 CFU)
  Survival rate of zebrafish larvae after 24 h, replicate #1: 0
E. coli 87; replicate #2, E. coli 87 (189 CFU)
  Survival rate of zebrafish larvae after 24 h, replicate #2: 40
E. coli 87; replicate #3, E. coli 87 (189 CFU)
  Survival rate of zebrafish larvae after 24 h, replicate #3: 20
E. coli 87; replicate #4, E. coli 87 (189 CFU)
  Survival rate of zebrafish larvae after 24 h, replicate #4: 20
FtsQ(50–276)
  specificity of FtsQ(50–276) modification (number of up-shifted bands): robust and selective covalent modification
